Data as given in patent US20230374038A1, “MODULATORS OF CYSTIC FIBROSIS TRANSMEMBRANE CONDUCTANCE REGULATOR” (VERTEX PHARMACEUTICALS INCORPORATED, priority 2020, published 2023).
pEC50: −log10 of the molar value.

Target: CFTR (Homo sapiens, UniProt P13569)
Assay: Membrane Potential Dye, Enteroid Assay B
Assay type: cell-based
Conditions: for pEC50: read-out: Ent. B EC50
Procedure, shortened: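 Human intestinal enteroids seeded at 5000 cells/well, treated with compound 18-24 h at 37 °C, then loaded 25 min with methyl oxonol membrane-potential dye plus CaCC blockers. Chloride transport started in chloride-free buffer with 10 μM forskolin, 100 μM IBMX and 300 nM Compound III, read 15 min; expressed as % of triple-combination control.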

CFTR, sequence (P13569 with tags, fused parts or gaps DEL508-508): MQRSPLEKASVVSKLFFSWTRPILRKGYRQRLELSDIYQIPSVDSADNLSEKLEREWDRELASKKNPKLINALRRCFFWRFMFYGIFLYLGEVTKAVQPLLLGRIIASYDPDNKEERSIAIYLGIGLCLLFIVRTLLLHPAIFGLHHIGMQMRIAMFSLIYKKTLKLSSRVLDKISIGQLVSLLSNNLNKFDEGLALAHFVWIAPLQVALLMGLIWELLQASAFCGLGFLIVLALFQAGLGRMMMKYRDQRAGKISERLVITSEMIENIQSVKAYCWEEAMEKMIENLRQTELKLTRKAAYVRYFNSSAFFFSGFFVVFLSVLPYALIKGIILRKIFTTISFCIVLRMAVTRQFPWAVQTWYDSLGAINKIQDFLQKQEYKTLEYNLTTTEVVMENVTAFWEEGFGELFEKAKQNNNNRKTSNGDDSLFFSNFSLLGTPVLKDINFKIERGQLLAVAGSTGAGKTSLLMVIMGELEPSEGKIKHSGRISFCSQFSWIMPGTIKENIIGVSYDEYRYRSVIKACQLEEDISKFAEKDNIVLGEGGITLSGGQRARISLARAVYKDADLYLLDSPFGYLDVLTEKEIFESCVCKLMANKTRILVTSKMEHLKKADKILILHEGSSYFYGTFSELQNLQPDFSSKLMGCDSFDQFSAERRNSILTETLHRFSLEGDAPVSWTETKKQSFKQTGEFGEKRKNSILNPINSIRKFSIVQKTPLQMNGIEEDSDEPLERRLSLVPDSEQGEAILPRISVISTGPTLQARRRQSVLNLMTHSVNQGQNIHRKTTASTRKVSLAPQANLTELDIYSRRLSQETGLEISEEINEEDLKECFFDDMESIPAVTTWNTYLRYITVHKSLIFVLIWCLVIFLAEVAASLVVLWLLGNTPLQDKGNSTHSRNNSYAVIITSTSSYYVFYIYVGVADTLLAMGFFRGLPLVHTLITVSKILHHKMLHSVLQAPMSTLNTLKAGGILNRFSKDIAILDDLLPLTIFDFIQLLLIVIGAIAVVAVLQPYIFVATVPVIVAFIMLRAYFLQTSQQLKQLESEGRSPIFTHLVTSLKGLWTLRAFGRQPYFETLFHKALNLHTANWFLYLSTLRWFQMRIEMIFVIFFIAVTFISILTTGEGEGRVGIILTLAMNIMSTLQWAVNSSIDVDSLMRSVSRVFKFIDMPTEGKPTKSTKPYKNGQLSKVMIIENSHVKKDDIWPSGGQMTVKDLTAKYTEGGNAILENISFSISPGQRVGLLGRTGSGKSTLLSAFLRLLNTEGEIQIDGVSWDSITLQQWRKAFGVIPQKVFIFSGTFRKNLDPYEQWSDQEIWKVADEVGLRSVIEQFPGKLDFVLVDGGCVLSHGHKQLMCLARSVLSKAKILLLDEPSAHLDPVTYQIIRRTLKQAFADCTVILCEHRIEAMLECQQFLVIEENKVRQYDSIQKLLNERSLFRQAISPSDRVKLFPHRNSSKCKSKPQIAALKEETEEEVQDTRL

SMILES	Ent. B Max Activity	pEC50
Cc1cccc(C)c1-c1nc2nc(c1-c1cnn(C(C)C)c1)O[C@H](C)CNC(=O)c1cccc(c1)S(=O)(=O)N2 [Compound 147]	++ (++ is 30-60%)	4.52 to 5.52
Cc1cccc(C)c1-c1nc2nc(c1C)OC[C@@H](CC(C)(C)C)N(C1CC3(CC3)C1)C(=O)c1cccc(c1)S(=O)(=O)N2 [Compound 101]	+++ (+++ is >60%)	> 6.00
Cc1cccc(C)c1-c1nc2nc(c1C)O[C@H](C)CNC(=O)c1cccc(c1)S(=O)(=O)N2 [Compound 202]	++ (++ is 30-60%)	5.52 to 6.00
Cc1cccc(C)c1-c1nc2nc(c1C)OC[C@@H](CC(C)(C)C)N(C1CC3(CC(N(C)C)C3)C1)C(=O)c1cccc(c1)S(=O)(=O)N2 (some centres unmarked) [Compound 94]	+++ (+++ is >60%)	> 6.00
Cc1cccc(C)c1-c1nc2nc(c1C1=CCOCC1)OC[C@@H](C)NC(=O)c1cccc(c1)S(=O)(=O)N2 [Compound 140]	++ (++ is 30-60%)	4.52 to 5.52
Cc1cccc(C)c1-c1nc2nc(c1C)OC[C@@H](CC(C)C)N(C1CC3(CCN(C(=O)OC(C)C)CC3)C1)C(=O)c1cccc(c1)S(=O)(=O)N2 [Compound 70]	+++ (+++ is >60%)	> 6.00
Cc1cccc(C)c1-c1nc2nc(c1C)OC[C@@H](CC(C)C)N([C@H]1C[C@@H](OC(C)C)C1)C(=O)c1cccc(c1)S(=O)(=O)N2 (single isomer, unassigned) [Compound 48]	+++ (+++ is >60%)	> 6.00
Cc1cccc(C)c1-c1nc2nc(c1C)OC[C@@H](CC(C)(C)O)N(Cc1ncccn1)C(=O)c1cccc(c1)S(=O)(=O)N2 [Compound 111]	+++ (+++ is >60%)	5.52 to 6.00
Cc1cccc(C)c1-c1nc2nc(c1F)OC[C@@H](CC(C)C)N(C1CC3(CCNCC3)C1)C(=O)c1cccc(c1)S(=O)(=O)N2 [Compound 186]	++ (++ is 30-60%)	> 6.00
Cc1cccc(C)c1-c1nc2nc(c1-c1ccccc1)O[C@H](C)CNC(=O)c1cccc(c1)S(=O)(=O)N2 [Compound 119, (10R)-6-(2,6-dimethylphenyl)-10-methyl-2,2-dioxo-7-phenyl-9-oxa-2λ^6-thia-3,5,12,19-tetrazatricyclo[12.3.1.14,8]nonadeca-1(18),4(19),5,7,14,16-hexaen-13-one]	+++ (+++ is >60%)	> 6.00
Cc1cccc(C)c1-c1nc2nc(c1-c1ccccc1)OC[C@@H](C)NC(=O)c1cccc(c1)S(=O)(=O)N2 [Compound 142]	++ (++ is 30-60%)	> 6.00
COCCN1CCC2(CC1)CC(N1C(=O)c3cccc(c3)S(=O)(=O)Nc3nc(c(OC)c(-c4c(C)cccc4C)n3)OC[C@H]1CC(C)C)C2 [Compound 166, (11R)-6-(2,6-dimethylphenyl)-11-isobutyl-7-methoxy-12-[7-(2-methoxyethyl)-7-azaspiro[3.5]nonan-2-yl]-2,2-dioxo-9-oxa-2λ^6-thia-3,5,12,19-tetrazatricyclo[12.3.1.14,8]nonadeca-1(18),4(19),5,7,14,16-hexaen-13-one]	+++ (+++ is >60%)	> 6.00
COC1CC(N2C(=O)c3cccc(c3)S(=O)(=O)Nc3nc(c(C)c(-c4c(C)cccc4C)n3)OC[C@H]2CC(C)C)C1 (stereo in doubt) [Compound 71]	+++ (+++ is >60%)	> 6.00
Cc1cccc(C)c1-c1nc2nc(c1C1CCN(C(=O)OC(C)(C)C)CC1)O[C@H](C)CNC(=O)c1cccc(c1)S(=O)(=O)N2 [Compound 150]	++ (++ is 30-60%)	5.52 to 6.00
Cc1cccc(C)c1-c1nc2nc(c1-c1ccncc1)OC[C@@H](C)NC(=O)c1cccc(c1)S(=O)(=O)N2 [Compound 145]	+ (+ is <30%)	–
Cc1cccc(C)c1-c1nc2nc(c1C)OCCN(C1CC3(CC(NC(=O)OC(C)(C)C)C3)C1)C(=O)c1cccc(c1)S(=O)(=O)N2 (centres unmarked) [Compound 37]	++ (++ is 30-60%)	> 6.00
[H][C@]1(N2C(=O)c3cccc(c3)S(=O)(=O)Nc3nc(c(C)c(-c4c(C)cccc4C)n3)OC[C@H]2CC(C)(C)C)C[C@@]2(C[C@H](C(C)(C)O)C2)C1 (single isomer, unassigned) [Compound 58]	+++ (+++ is >60%)	> 6.00
Cc1cccc(C)c1-c1nc2nc(c1C)OC[C@@H](CC(C)(C)C)N(C1CC3(CC(NC(=O)OC(C)C)C3)C1)C(=O)c1cccc(c1)S(=O)(=O)N2 (single isomer, unassigned) [Compound 65]	+++ (+++ is >60%)	> 6.00
Cc1cccc(C)c1-c1nc2nc(c1C)OC(c1ccc(CC3(C(F)(F)F)CC3)cn1)CN(C)C(=O)c1cccc(c1)S(=O)(=O)N2 (centres unmarked) [Compound 205]	+++ (+++ is >60%)	> 6.00

SMILES	Ent. B Max Activity	pEC50
COC(=O)NC1CC2(C1)CC(N1C(=O)c3cccc(c3)S(=O)(=O)Nc3nc(c(C)c(-c4c(C)cccc4C)n3)OC[C@H]1CC(C)(C)C)C2 (single isomer, unassigned) [Compound 64]	+++ (+++ is >60%)	> 6.00
COc1ccccc1-c1c2nc(nc1-c1c(C)cccc1C)NS(=O)(=O)c1cccc(c1)C(=O)N[C@H](C)CO2 [Compound 123, (11R)-6-(2,6-Dimethylphenyl)-7-(2-methoxyphenyl)-11-methyl-2,2-dioxo-9-oxa-2λ^6-thia-3,5,12,19-tetrazatricyclo[12.3.1.14,8]nonadeca-1(18),4(19),5,7,14,16-hexaen-13-one]	+++ (+++ is >60%)	5.52 to 6.00
Cc1cccc(C)c1-c1nc2nc(c1C)OC[C@@H](CC1(C(F)(F)F)CC1)N(C1CC3(CCN(C(=O)OC(C)C)CC3)C1)C(=O)c1cccc(c1)S(=O)(=O)N2 [Compound 76]	+++ (+++ is >60%)	> 6.00
Cc1cccc(C)c1-c1nc2nc(c1C)OC[C@@H](CC(C)(C)C)N(C1CC3(CCN(C(=O)OC(C)(C)C)CC3)C1)C(=O)c1cccc(c1)S(=O)(=O)N2 [Compound 82]	+++ (+++ is >60%)	> 6.00
COc1cccc(-c2c3nc(nc2-c2c(C)cccc2C)NS(=O)(=O)c2cccc(c2)C(=O)NC[C@@H](C)O3)c1 [Compound 122, (10R)-6-(2,6-Dimethylphenyl)-7-(3-methoxyphenyl)-10-methyl-2,2-dioxo-9-oxa-2λ^6-thia-3,5,12,19-tetrazatricyclo[12.3.1.14,8]nonadeca-1(18),4(19),5,7,14,16-hexaen-13-one]	+++ (+++ is >60%)	> 6.00
Cc1cccc(C)c1-c1nc2nc(c1/C=C/C(C)(C)C)OC[C@@H](CC(C)C)NC(=O)c1cccc(c1)S(=O)(=O)N2 [Compound 126, (11R)-7-[(1E)-3,3-dimethylbut-1-en-1-yl]-6-(2,6-dimethylphenyl)-11-(2-methylpropyl)-9-oxa-2λ^6-thia-3,5,12,19-tetraazatricyclo[12.3.1.14,8]nonadeca-1(17),4,6,8(19),14(18),15-hexaene-2,2,13-trione]	+++ (+++ is >60%)	> 6.00
Cc1cccc(C)c1-c1nc2nc(c1C1=CCOCC1)O[C@H](C)CNC(=O)c1cccc(c1)S(=O)(=O)N2 [Compound 152]	++ (++ is 30-60%)	4.52 to 5.52
Cc1cccc(C)c1-c1nc2nc(c1C1CCN(C(=O)OC(C)(C)C)CC1)OC[C@@H](C)NC(=O)c1cccc(c1)S(=O)(=O)N2 [Compound 141]	+ (+ is <30%)	–
Cc1cccc(C)c1-c1nc2nc(c1C)OC[C@@H](CC1(C(F)(F)F)CC1)N(C1CC3(CC(CO)C3)C1)C(=O)c1cccc(c1)S(=O)(=O)N2 (some centres unmarked) [Compound 80]	+++ (+++ is >60%)	> 6.00
Cc1cccc(C)c1-c1nc2nc(c1C)OC[C@@H](CC(C)C)N([C@H]1C[C@@]3(C[C@H](NC(=O)OC(C)C)C3)C1)C(=O)c1cccc(c1)S(=O)(=O)N2 (single isomer, unassigned) [Compound 52]	+++ (+++ is >60%)	> 6.00
COC(=O)NC1CC2(C1)CC(N1C(=O)c3cccc(c3)S(=O)(=O)Nc3nc(c(C)c(-c4c(C)cccc4C)n3)OC[C@H]1CC(C)C)C2 (stereo in doubt) [Compound 68]	+++ (+++ is >60%)	> 6.00
COC1CC(N2C(=O)c3cccc(c3)S(=O)(=O)Nc3nc(c(C)c(-c4c(C)cccc4C)n3)OC[C@H]2CC2(C(F)(F)F)CC2)C1 (some centres unmarked) [Compound 99]	+++ (+++ is >60%)	> 6.00
COC(=O)NC1CC2(C1)CC(N1C(=O)c3cccc(c3)S(=O)(=O)Nc3nc(c(C)c(-c4c(C)cccc4C)n3)OC[C@H]1CC1(C(F)(F)F)CC1)C2 (stereo in doubt) [Compound 86]	+++ (+++ is >60%)	> 6.00
Cc1cccc(C)c1-c1nc2nc(c1C)OC[C@@H](CC(C)C)N(C1CC3(CC3)C1)C(=O)c1cccc(c1)S(=O)(=O)N2 [Compound 75]	+++ (+++ is >60%)	> 6.00
COC1CC(N2C(=O)c3cccc(c3)S(=O)(=O)Nc3nc(c(C)c(-c4c(C)cccc4C)n3)OC[C@H]2CC2(C(F)(F)F)CC2)C1 (some centres unmarked) [Compound 100]	+++ (+++ is >60%)	> 6.00
Cc1cccc(C)c1-c1nc2nc(c1C)OC[C@@H](CC(C)(C)C)NC(=O)c1cccc(c1)S(=O)(=O)N2 [Compound 102]	+++ (+++ is >60%)	> 6.00
Cc1cccc(C)c1-c1nc2nc(c1C)OC[C@@H](CCC(C)(C)O)N(CCCC(C)(C)O)C(=O)c1cccc(c1)S(=O)(=O)N2 [Compound 109]	++ (++ is 30-60%)	4.52 to 5.52
COC1CC(N2C(=O)c3cccc(c3)S(=O)(=O)Nc3nc(c(C)c(-c4c(C)cccc4C)n3)OC[C@H]2CC(C)(C)C)C1 (some centres unmarked) [Compound 84]	+++ (+++ is >60%)	> 6.00
COCCN1CCC2(CC1)CC(N1C(=O)c3cccc(c3)S(=O)(=O)Nc3nc(c(F)c(-c4c(C)cccc4C)n3)OC[C@H]1CC(C)C)C2 [Compound 185]	+++ (+++ is >60%)	> 6.00
